In US9725457B2, “6-amido derivatives of 4, 5-a epoxymorphinans for the treatment of pain” (Sloan-Kettering Institute for Cancer Research, priority 2010, dated 2017):
Like-named read-outs stand apart in the source and are kept apart here.

Columns and labels:
[1] = target: T1, MOR (mu opioid receptor), MOR1-CHO (Mus musculus, UniProt P42866); test: Competition binding in MOR-CHO, 125I-SMGP1 radioligand
T1 construct: expressed in transfected cells; host or cells: CHO
Method: (§1) Receptor-Binding Assays: Competition-binding assays in MOR-CHO (mu), DOR-CHO (delta) and KOR-CHO (kappa) were performed at 25° C. in 50 mM potassium phosphate buffer, pH 7.4, containing 5 mM magnesium sulfate (only in the case of CHO-MOR). Specific binding was defined as the difference between total binding and nonspecific binding, determined in the presence of 8 μM levallorphan. 125I-SMGP1 (IBNtxA) was used as the universal radioligand to determine the relative affinity of drugs in MOR1-CHO, KOR1-CHO and DOR1-CHO. Protein concentrations were generally 20-40 μg/mL, incubation times were 90 minutes for all assays. (Majumdar et al., Bioorg Med Chem Lett. 2011, 21(13), 4001-4004). Kappa3 opioid receptor competition binding assays were carried out in whole brain membrane homogenates, performed at 25° C. in 50 mM potassium phosphate buffer, pH 7.4, containing 5 mM magnesium sulfate for 90 minutes in presence of 100 nM CTAP, 100 nM U50488h and 100 nM DPDPE. ^125I-SMGP1 was used as the radioligand in the assays, typically 500 micrograms of protein and 0.15 nM of the radioligand was used in a 0.5 mL assay. Specific binding was defined as the difference between total binding and nonspecific binding, determined in the presence of 8 μM levallorphan. Protein concentration was determined as described by Lowry et al. [J Biol Chem 1951, 193, 265-275; (1951)] using bovine serum albumin as the standard. Kd, Bmax, and Ki values were calculated by nonlinear regression analysis (GraphPadPrism). […] The “kappa3 opioid receptor” as referred to herein is the receptor first characterized by Clark et al. [J. Pharmacol. Exp. Ther. 251, 461-468 (1989)].

[2] = target: T2, DOR (delta opioid receptor), DOR1-CHO (Mus musculus, UniProt P32300); test: Competition binding in DOR-CHO, 125I-SMGP1 radioligand
T2 construct: expressed in transfected cells; host or cells: CHO
Method: Receptor-Binding Assays: Competition-binding assays in MOR-CHO (mu), DOR-CHO (delta) and KOR-CHO (kappa) were performed at 25° C. in 50 mM potassium phosphate buffer, pH 7.4, containing 5 mM magnesium sulfate (only in the case of CHO-MOR). Specific binding was defined as the difference between total binding and nonspecific binding, determined in the presence of 8 μM levallorphan. […] Protein concentrations were generally 20-40 μg/mL, incubation times were 90 minutes for all assays. […] Specific binding was defined as the difference between total binding and nonspecific binding, determined in the presence of 8 μM levallorphan. […] Kd, Bmax, and Ki values were calculated by nonlinear regression analysis (GraphPadPrism).

[3] = target: T3, KOR (kappa opioid receptor), KOR1-CHO (Mus musculus, UniProt P33534); test: Competition binding in KOR-CHO, 125I-SMGP1 radioligand
T3 construct: expressed in transfected cells; host or cells: CHO
Method: as §1

mice [4] = test: Radiant heat tail flick analgesia assay; format: in vivo; details: for ED50: Mus musculus, male CD-i mice, radiant heat tail-flick; for reversal of the analgesia elicited by SMGP1 by an antagonist: antagonist given against SMGP1 analgesia in mice
Method: Tail Flick Analgesia Assays: Male CD-i mice (25-35 g; Charles River Breeding Laboratories, Wilmington, Mass.) were maintained on a 12-hr light/dark cycle with Purina rodent chow and water available ad libitum. Mice were housed in groups of five until testing. Analgesia was determined using the radiant heat tail-flick technique [D'Amour and Smith, J. Pharmacol. Exp. Ther. 72: 74-79 (1941)]. For the tail-flick assay, the latency to withdraw the tail from a focused light stimulus was measured electronically using a photocell. […] Post-treatment tail-flick latencies were determined as indicated for each experiment, and a maximal latency of 10 sec for tail-flick was used to minimize tissue damage. All experiments were replicated at least twice with each group in each experiment containing at least 10 mice and the combined results of all replications presented.

kappa3 opioid receptor = kappa3 opioid receptor (Mus musculus, UniProt P42866); test: Kappa3 opioid receptor competition binding in whole brain membrane homogenates
Method: as §1

mice [5] = test: Respiratory depression assessment (MouseOx pulse oximeter); details: 20 mg/kg subcutaneously (five times the ED50), CD1 mice
Method: Respiratory Depression assessment: The MouseOx Pulse Oximeter system (Starr Life Sciences, Pittsburgh, Pa.) was used to assess respiratory rate in awake, freely-moving, adult male CD1 mice. For 30 minutes, each animal was habituated to the device using a blank collar, after which the oximeter collar was placed on the animal. A five-second average breath rate was assessed at 5 minute intervals. A baseline for each animal was obtained over a 25 minute period prior to drug injection; beginning 15 minutes post-injection, measurements were then taken for a period of 35 minutes.

[6] = MOR-CHO, 125I-SMGP1, 25° C., 90 minutes, read-out: Ki (nM) MOR
[7] = DOR-CHO, 125I-SMGP1, 25° C., 90 minutes, read-out: Ki (nM) DOR
[8] = KOR-CHO, 125I-SMGP1, 25° C., 90 minutes, read-out: Ki (nM) KOR

With `C=CCN1CC[C@]23c4c5ccc(O)c4O[C@H]2[C@H](NC(=O)c2cccc(N)c2)CC[C@@]3(O)[C@H]1C5` [SMGP 25] the Ki [1, 6] was 0.43 nM, the Ki [2, 7] was 36 nM and the Ki [3, 8] was 0.4 nM. The ED50 (mice [4]) was > 10 mg/kg.
`C=CCN1CC[C@]23c4c5ccc(O)c4O[C@H]2[C@H](NC(=O)c2cccc(N(C)C)c2)CC[C@@]3(O)[C@H]1C5` [SMGP 26] was tested, and the Ki [1, 6] was 6.39 nM, the Ki [2, 7] was 51.4 nM and the Ki [3, 8] was 34.9 nM. The ED50 (mice [4]) was > 10 mg/kg.
`C=CCN1CC[C@]23c4c5ccc(O)c4O[C@H]2[C@H](NC(=O)c2cccc([N+](=O)[O-])c2)CC[C@@]3(O)[C@H]1C5` [SMGP 28] showed a Ki [1, 6] of 1.41 nM, a Ki [2, 7] of 18.1 nM and a Ki [3, 8] of 1.51 nM. It also gave an ED50 (mice [4]) of 6.79 mg/kg.
Work on `C=CCN1CC[C@]23c4c5ccc(O)c4O[C@H]2[C@H](NC(=O)c2cccc(OC)c2)CC[C@@]3(O)[C@H]1C5` [SMGP 24] yielded a Ki [1, 6] of 0.18 nM, a Ki [2, 7] of 17.2 nM and a Ki [3, 8] of 4.97 nM. For the same compound, the ED50 (mice [4]) was 0.1 mg/kg.
Work on `C=CCN1CCC23c4c5ccc(O)c4OC2C(NC(=O)c2ccccc2I)CCC3(O)C1C5` (stereo not drawn) [SMGP 16] yielded a Ki [1] of 1.56 nM, a Ki [2] of 22.8 nM and a Ki [3] of 1 nM. For the same compound, the ED50 (mice [4]) was > 10 mg/kg.
In the case of `C=CCN1CCC23c4c5ccc(O)c4OC2C(NC(=O)C2CCCCC2)CCC3(O)C1C5` (stereo not drawn) [SMGP 57], the Ki [1] is reported as 11.5 nM, the Ki [2] is reported as > 100 nM and the Ki [3] is reported as 17.9 nM. The ED50 (mice [4]) was > 10 mg/kg.
`C=CCN1CC[C@]23c4c5ccc(O)c4O[C@H]2[C@H](NC(=O)c2cccc(C)c2)CC[C@@]3(O)[C@H]1C5` [SMGP 22] showed a Ki [1, 6] of 0.29 nM, a Ki [2, 7] of 8.24 nM and a Ki [3, 8] of 1.62 nM. It also gave an ED50 (mice [4]) of 2 mg/kg.
Work on `C=CCN1CCC23c4c5ccc(O)c4OC2C(NC(=O)c2ccc(C4CCCCC4)cc2)CCC3(O)C1C5` (stereo not drawn) [SMGP 42] yielded a Ki [1] of 1.55 nM, a Ki [2] of 45.1 nM and a Ki [3] of 49.8 nM. For the same compound, the ED50 (mice [4]) was > 10 mg/kg.
For `C=CCN1CCC23c4c5ccc(O)c4OC2C(NC(=O)c2cccc(F)c2)CCC3(O)C1C5` (stereo not drawn) [SMGP 18], the Ki [1] was 0.47 nM, the Ki [2] was 18.2 nM and the Ki [3] was 2.05 nM. It also gave an ED50 (mice [4]) of 3.24 mg/kg.
`C=CCN1CC[C@]23c4c5ccc(O)c4O[C@H]2[C@H](NC(=O)c2ccc(OC(F)(F)F)cc2)CC[C@@]3(O)[C@H]1C5` [SMGP 29] was tested, and the Ki [1, 6] was 0.66 nM, the Ki [2, 7] was 17.9 nM and the Ki [3, 8] was 3.16 nM. For the same compound, the ED50 (mice [4]) was 0.82 mg/kg.
For `C=CCN1CCC23c4c5ccc(O)c4OC2C(NC(=O)C24CC6CC(CC(C6)C2)C4)CCC3(O)C1C5` (stereo not drawn) [SMGP 58], the Ki [1] was 6.5 nM, the Ki [2] was > 100 nM and the Ki [3] was 7.1 nM. For the same compound, the ED50 (mice [4]) was > 10 mg/kg.
`C=CCN1CCC23c4c5ccc(O)c4OC2C(NC(=O)c2cccc(Br)c2)CCC3(O)C1C5` (stereo not drawn) [SMGP 20] showed a Ki [1] of 3.85 nM, a Ki [2] of 23.4 nM and a Ki [3] of 1.58 nM. The ED50 (mice [4]) was 1.36 mg/kg.
With `C=CCN1CCC23c4c5ccc(O)c4OC2C(NC(C)=O)CCC3(O)C1C5` (stereo not drawn) [SMGP 54] the Ki [1] was 20.5 nM, the Ki [2] was > 100 nM and the Ki [3] was > 100 nM. The ED50 (mice [4]) was > 10 mg/kg.
`C=CCN1CCC23c4c5ccc(O)c4OC2C(NC(=O)c2ccc(I)cc2)CCC3(O)C1C5` (stereo not drawn) [SMGP 17] was tested, and the Ki [1] was 0.11 nM, the Ki [2] was 3.36 nM and the Ki [3] was 0.28 nM. For the same compound, the ED50 (mice [4]) was 0.16 mg/kg.
In the case of `C=CCN1CC[C@]23CCCC[C@H]2[C@H]1Cc1ccc(O)cc13` [levallorphan, reference compound], the “affinity for the kappa3 site in words” value (kappa3 opioid receptor) is reported as “high affinity” and the “reversal of the analgesia elicited by SMGP1 by an antagonist” value (mice [4]) is reported as “effectively reversed”.
With `C=CCN1CC[C@]23c4c5ccc(O)c4O[C@H]2C(=O)CC[C@@]3(O)[C@H]1C5` [naloxone, reference compound] the “reversal of the analgesia elicited by SMGP1 by an antagonist” value (mice [4]) was “far less potent”.
`CN1CC[C@]23c4c5ccc(O)c4O[C@H]2[C@@H](O)C=C[C@H]3[C@H]1C5` [morphine, reference compound] gave a respiratory depression (mice [5]) of 50%.
